Source: patent EP4122499A1, “FIBROBLAST ACTIVATION PROTEIN INHIBITORS AND USE THEREOF” (3B Pharmaceuticals GmbH, priority 2021, dated 2023)

Experiments:
[1] = biological target: T1, FAP-expressing human WI-38 fibroblasts (Homo sapiens, UniProt Q12884); experiment: Competitive FACS binding assay (displacement of Cy5-labeled FAP inhibitor 3BP-2935); conditions: 3 nM Cy5-labeled 3BP-2935, 4°C, 1 hour
T1 construct: FAP-expressing human WI-38 fibroblasts (ECACC 90020107) were cultured in EMEM; host or cells: WI-38 human fibroblasts
T1 sequence (Q12884 1-760): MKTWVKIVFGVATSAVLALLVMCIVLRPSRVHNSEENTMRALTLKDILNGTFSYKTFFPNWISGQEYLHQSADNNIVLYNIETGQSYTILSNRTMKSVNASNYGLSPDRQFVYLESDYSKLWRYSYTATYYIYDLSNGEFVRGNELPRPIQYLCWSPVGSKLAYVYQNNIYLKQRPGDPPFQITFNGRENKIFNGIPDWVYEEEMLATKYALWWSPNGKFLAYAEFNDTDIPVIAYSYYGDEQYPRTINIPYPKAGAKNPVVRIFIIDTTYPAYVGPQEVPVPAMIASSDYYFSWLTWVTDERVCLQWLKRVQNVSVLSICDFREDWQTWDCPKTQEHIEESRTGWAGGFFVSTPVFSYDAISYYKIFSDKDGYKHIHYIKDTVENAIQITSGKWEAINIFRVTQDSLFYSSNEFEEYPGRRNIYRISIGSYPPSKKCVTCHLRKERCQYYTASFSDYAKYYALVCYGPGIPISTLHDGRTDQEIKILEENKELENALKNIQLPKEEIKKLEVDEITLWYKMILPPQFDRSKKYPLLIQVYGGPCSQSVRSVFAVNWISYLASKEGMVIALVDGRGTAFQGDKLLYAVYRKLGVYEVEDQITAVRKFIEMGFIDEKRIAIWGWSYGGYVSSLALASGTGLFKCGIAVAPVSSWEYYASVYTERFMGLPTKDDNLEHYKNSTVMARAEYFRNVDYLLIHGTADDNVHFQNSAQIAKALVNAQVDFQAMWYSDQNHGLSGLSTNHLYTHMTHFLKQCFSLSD
Protocol: In order to determine binding of compounds according to the present invention to FAP-expressing cells, a competitive FACS binding assay was established.
Cells were diluted in FACS buffer to a final concentration of 100.000 cells per ml and 200 µl of the cell suspension are transferred to a u-shaped non-binding 96-well plate (Greiner).
Cell were washed twice with FACS buffer (see above) and resuspended in 200 µl FACS buffer. Cells were analyzed in an Attune NxT flow cytometer (Thermo Fisher Scientific). Median fluorescence intensities (Cy5 channel) was calculated by Attune NxT software and plotted against test compound concentrations. Four parameter logistic (4PL) curve fitting and pIC50 calculations were performed using ActivityBase software.

[2] = biological target: T2, Human recombinant FAP (Homo sapiens, UniProt Q12884); experiment: FRET-based FAP protease activity assay (human); assay type: biochemical; parameters: purchased R&D systems 3715-SE; conditions: FRET-peptide substrate, 37°C; for IC50: read-out: pIC50 (Activity) (converted)
T2 sequence (Q12884 1-760): T1 sequence (Q12884 1-760)
Protocol: (§1) In order to determine the inhibitory activity a FRET-based FAP protease activity assay was established.
25 µL of a 30 µM substrate solution, diluted in assay buffer, was added. […] Four parameter logistic (4PL) curve fitting and pIC50 calculations were performed using ActivityBase software (IDBS).

[3] = biological target: T3, Recombinant human DPP4 (Homo sapiens, UniProt P27487); experiment: DPP4 protease activity assay; assay type: biochemical; conditions: 20 µM GP-AMC substrate; read-out: pIC50 (DPP4) (converted)
T3 construct: purchased R&D systems 9168-SE
T3 sequence (P27487 whole entry): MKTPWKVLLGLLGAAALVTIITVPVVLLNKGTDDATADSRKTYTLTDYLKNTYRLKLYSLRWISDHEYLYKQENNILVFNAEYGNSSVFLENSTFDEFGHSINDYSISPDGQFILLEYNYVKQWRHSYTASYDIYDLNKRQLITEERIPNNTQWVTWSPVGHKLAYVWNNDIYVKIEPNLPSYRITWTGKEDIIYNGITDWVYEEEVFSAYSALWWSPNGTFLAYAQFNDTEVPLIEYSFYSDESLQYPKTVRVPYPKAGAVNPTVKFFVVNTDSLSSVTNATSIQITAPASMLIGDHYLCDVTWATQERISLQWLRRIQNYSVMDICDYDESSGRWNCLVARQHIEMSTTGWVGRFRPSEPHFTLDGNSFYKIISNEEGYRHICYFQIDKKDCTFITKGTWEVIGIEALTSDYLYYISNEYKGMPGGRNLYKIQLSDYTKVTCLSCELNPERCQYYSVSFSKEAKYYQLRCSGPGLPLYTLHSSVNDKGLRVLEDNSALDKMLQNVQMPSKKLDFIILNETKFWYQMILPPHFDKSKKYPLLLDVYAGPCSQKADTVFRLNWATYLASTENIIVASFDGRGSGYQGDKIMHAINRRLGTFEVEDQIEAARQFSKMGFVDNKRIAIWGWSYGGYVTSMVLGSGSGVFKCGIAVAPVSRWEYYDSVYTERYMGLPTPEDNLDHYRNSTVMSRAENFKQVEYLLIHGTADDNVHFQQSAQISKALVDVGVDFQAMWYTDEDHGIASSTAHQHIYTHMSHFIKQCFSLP
Protocol: The PREP activity assay was performed using the FACS buffer (PBS including 1% FBS, Sigma-Aldrich, Cat# D8537). […] The DPP4 activity assay was performed in DPP assay buffer (25 mM Tris, pH 8.0).
Four parameter logistic (4PL) curve fitting and pIC50 calculations were performed using ActivityBase software.

[4] = biological target: T2, Human recombinant FAP; experiment: Surface plasmon resonance assay (Biacore T200, single cycle kinetics); assay type: binding; conditions: SPR, 25°C; for HL [min] (Biacore): half-life; for pKD (Biacore) / Kd: 1:1 Langmuir binding model; for Kd: read-out: pKD (Biacore) (converted)
Protocol: Surface plasmon resonance studies were performed using a Biacore™ T200 SPR system (Cytiva, formerly GE Healthcare). Briefly, polarized light is directed towards a gold-labeled sensor surface, and minimum intensity reflected light is detected. The angle of reflected light changes as molecules bind and dissociate. […] Test compounds are contacted with the loaded surface, and a real-time interaction profile with the FAP ligand is recorded in a sensorgram. In real-time, the association and dissociation of a binding interaction is measured, enabling calculation of association and dissociation rate constants and the corresponding affinity constants. Importantly, a background response is generated due to the difference in the refractive indices of the running and sample buffers, as well as unspecific binding of the test compounds to the flow cell surface. This background is measured and subtracted by running the sample on a control flow cell coated with the same density of capture antibody in the absence of immobilized FAP. Furthermore, baseline drift correction of the binding data is performed, which is caused by slow dissociation of the captured FAP from the immobilized antibody. This drift is measured by injecting running buffer through a flow cell with the antibody and FAP immobilized to the sensor surface.
Biacore™ CM5 sensor chips were used. […] A 150 µL aliquot was transferred into plastic vials and placed into the sample rack of the Biacore™ T200 instrument. Amine Coupling Kit Reagent solutions were transferred into plastic vials and placed into the sample rack: 90 µL of 0.4 M 1-ethyl-3-(3-dimethylaminopropyl)carbodiimide (EDC), and 90 µL of 0.1 M N-hydroxysuccinimide (NHS). A 130 µL aliquot of 1 M ethanolamine-HCl, pH 8.5, was transferred into plastic vials and placed into the sample rack. The Biacore™ liquid system was set-up as follows: Separate bottles containing distilled water (1 L), Running Buffer (500 mL), as well as an empty bottle for waste were placed onto the buffer tray. A preinstalled program for immobilization was used, with an immobilization level of 7000 RU. Immobilization was performed at 25°C. The immobilization procedure of anti-FAP antibodies was performed, as described in the Table 5. Table 5: Immobilization protocol for anti-FAP antibodies used on the CM5 sensor chip.
Human recombinant FAP was diluted in Running Buffer to a final concentration of 20 µg/mL. A 100 µL aliquot of human FAP-Working-Solution was transferred into plastic vials and placed into a sample rack. A 0.5 mM Compound-Stock-Solution was prepared by dissolving each compound in DMSO. For each test compound, Compound-Stock-Solutions were diluted in Running Buffer (HBST) at 500 nM and further diluted with HBST-DMSO Buffer (0.1% DMSO). SPR binding analyses for binary complexes were performed in SCK mode at 25°C. Following three SCK measurements, a baseline drift was assessed by injecting running buffer through a flow cell, with the antibody and FAP immobilized to the sensor surface. Table 6: Protocol for assessing the binding kinetics.
For each test compound, SPR raw data in the form of resonance units (RU) were plotted as sensorgrams using the Biacore™ T200 control software. The signal from the blank sensorgram was subtracted from that of the test compound sensorgram (blank corrected). The blank corrected sensorgram was corrected for baseline drift by subtracting the sensorgram of a SCK run without the test compound (running buffer only). The association rate (kon), dissociation rate (koff), dissociation constant (KD), and t1/2 were calculated from Blank-normalized SPR data using the 1:1 Langmuir binding model from the Biacore™ T200 evaluation software. Raw data and fit results were imported as text files in IDBS. The pKD value (negative decadic logarithm of dissociation constant) was calculated in the IDBS excel template.

[5] = biological target: T4, Recombinant mouse FAP (Mus musculus, UniProt P97321); experiment: FRET-based FAP protease activity assay (mouse); assay type: biochemical; conditions: FRET-peptide substrate, 37°C; for IC50: read-out: pIC50 (mouseFAP) (converted)
T4 construct: purchased R&D systems 8647-SE
T4 sequence (P97321 1-761): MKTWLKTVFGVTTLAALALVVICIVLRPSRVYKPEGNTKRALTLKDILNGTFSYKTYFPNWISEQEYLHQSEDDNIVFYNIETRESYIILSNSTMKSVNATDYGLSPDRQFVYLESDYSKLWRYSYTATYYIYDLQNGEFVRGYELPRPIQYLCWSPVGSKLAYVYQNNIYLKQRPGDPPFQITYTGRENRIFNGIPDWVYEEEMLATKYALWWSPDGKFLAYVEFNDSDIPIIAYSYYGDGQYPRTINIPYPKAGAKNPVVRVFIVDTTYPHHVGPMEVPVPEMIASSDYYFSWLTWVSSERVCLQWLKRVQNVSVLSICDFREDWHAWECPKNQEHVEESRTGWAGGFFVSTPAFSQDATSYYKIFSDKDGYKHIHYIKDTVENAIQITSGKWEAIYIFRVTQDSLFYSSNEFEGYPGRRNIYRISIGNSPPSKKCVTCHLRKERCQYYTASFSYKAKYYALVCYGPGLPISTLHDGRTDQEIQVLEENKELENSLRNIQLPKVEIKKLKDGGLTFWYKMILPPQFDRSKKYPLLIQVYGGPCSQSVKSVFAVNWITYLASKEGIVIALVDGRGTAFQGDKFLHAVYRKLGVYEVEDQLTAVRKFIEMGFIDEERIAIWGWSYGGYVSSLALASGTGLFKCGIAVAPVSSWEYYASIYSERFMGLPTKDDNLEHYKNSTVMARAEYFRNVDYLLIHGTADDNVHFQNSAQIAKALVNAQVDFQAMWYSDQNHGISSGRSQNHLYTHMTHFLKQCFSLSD
Protocol: as §1
25 µL of a 30 µM substrate solution, diluted in assay buffer, was added. […] Four parameter logistic (4PL) curve fitting and pIC50 calculations were performed using ActivityBase software.

| IC50 [1] | IC50 [2] | HL [min] (Biacore) [4] | Structure (SMILES) | also measured |
| --- | --- | --- | --- | --- |
| 20 nM | 6.31 nM |  | COc1cccc2c(C(=O)NCC(=O)N3CC(F)(F)C[C@H]3C#N)ccnc12 |  |
|  |  | 95 min | N#C[C@@H]1CCCN1C(=O)CNC(=O)c1ccnc2ccc(-n3cc(C(=O)NCCCNC(=O)CN4CCN(CC(=O)O)CCN(CC(=O)O)CCN(CC(=O)O)CC4)nn3)cc12 |  |
| 2 nM | 0.501 nM |  | Cc1c(-c2ccc(S(C)(=O)=O)cc2)ccc2nccc(C(=O)NCC(=O)N3CC(F)(F)C[C@H]3C#N)c12 | IC50 [5]: 2 nM |
| 2.51 nM | 1 nM |  | CC(C)(C)OC(=O)N1CC[N+]([O-])(CCCOc2ccc3nccc(C(=O)NCC(=O)N4CC(F)(F)C[C@H]4C#N)c3c2)CC1 |  |
| 15.8 nM | 3.16 nM |  | N#C[C@@H]1CC(F)(F)CN1C(=O)CNC(=O)c1ccnc2c(OCC3CC3)cccc12 |  |
| 1.26 nM | 0.501 nM |  | Cc1cc2nccc(C(=O)NCC(=O)N3CC(F)(F)C[C@H]3C#N)c2cc1-c1ccc(S(C)(=O)=O)cc1 | IC50 [5]: 1.58 nM |
| 3.16 nM | 1.26 nM |  | O=C(NCC(=O)N1CCC[C@H]1B(O)O)c1ccnc2ccccc12 |  |
| 200 nM | 63.1 nM |  | O=C(NCC(=O)N1CCC[C@H]1C(=O)c1ncn[nH]1)c1ccnc2ccccc12 | IC50 [5]: 79.4 nM |

Second part, the compound before the results:

| Structure (SMILES) | IC50 [1] | IC50 [2] | HL [min] (Biacore) [4] | also measured |
| --- | --- | --- | --- | --- |
| N#C[C@@H]1CC(F)(F)CN1C(=O)CNC(=O)c1ccnc2c(OCCCCc3ccccc3)cccc12 |  |  |  | pIC50 (FACS) [1]: 7.7; pIC50 (Activity) [2]: 8.2 |
| N#C[C@@H]1CCCN1C(=O)CNC(=O)c1ccnc2ccccc12 |  |  |  | IC50 [3]: > 1000 nM |
| N#C[C@@H]1CC(F)(F)CN1C(=O)CNC(=O)c1ccnc2ccc(-c3ccc(C(=O)NCCN4CCN(C(=O)CN5CCN(CC(=O)O)CCN(CC(=O)O)CCN(CC(=O)O)CC5)CC4)nc3)cc12 |  |  | >500 min | pKD (Biacore) [4]: >11 |
| N#C[C@@H]1CC(F)(F)CN1C(=O)CNC(=O)c1ccnc2ccccc12 |  |  | 10.4 min |  |
| N#C[C@@H]1CCCN1C(=O)CNC(=O)c1ccnc2ccc(-c3ccc(C(=O)O)cc3)cc12 | 2.51 nM | 1.58 nM | 11 min | IC50 [3]: > 1000 nM; Kd [4]: 0.2 nM |
| Cn1ncnc1C(=O)[C@@H]1CCCN1C(=O)CNC(=O)c1ccnc2ccccc12 | > 1000 nM | 316 nM |  |  |
| CC(C)(C)OC(=O)N1CCN(CCCOc2ccc3c(c2)c(C(=O)NCC(=O)N2CC(F)(F)C[C@H]2C#N)cc[n+]3[O-])CC1 | 10 nM | 2.51 nM |  |  |
| CC(C)(C)OC(=O)N1CC[N+]([O-])(CCCOc2ccc3c(c2)c(C(=O)NCC(=O)N2CC(F)(F)C[C@H]2C#N)cc[n+]3[O-])CC1 | 10 nM | 2.51 nM |  |  |
| O=C(NCC(=O)N1CCC[C@H]1C(=O)CO)c1ccnc2ccccc12 |  |  | 3.1 min | pIC50 (mouseFAP) [5]: 8.2 |
| CCOc1cccc2c(C(=O)NCC(=O)N3CC(F)(F)C[C@H]3C#N)ccnc12 | 20 nM | 3.16 nM |  |  |
| CS(=O)(=O)c1ccc(-c2ccc3nccc(C(=O)NCC(=O)N4CC(F)(F)C[C@H]4C#N)c3c2)c(CO)c1 | 2 nM | 0.501 nM | >500 min | Kd [4]: < 0.01 nM |
| O=C(O)CN1CCN(CC(=O)O)CCN(CC(=O)NCCCS(=O)(=O)c2ccc(-c3ccc4nccc(C(=O)NCC(=O)N5CCC[C@H]5C(=O)c5nc6ccccc6o5)c4c3)cc2)CCN(CC(=O)O)CC1 [drawing 317] |  |  | >500 min | pIC50 (mouseFAP) [5]: 8.6; pKD (Biacore) [4]: >11 |
| CC(C)(C)OC(=O)N1CCN(CCCOc2ccc3nccc(C(=O)NCC(=O)N4CC(F)(F)C[C@H]4C#N)c3c2)CC1 | 3.98 nM | 1.58 nM |  |  |
| Cc1cccc2c(C(=O)NCC(=O)N3CC(F)(F)C[C@H]3C#N)ccnc12 | 25.1 nM | 12.6 nM |  |  |
